Tests used:
[1] = molecular target: T1, Dimer of Gag-Pol polyprotein [489-587] (Human immunodeficiency virus 1, UniProt P12497); assay: Protease Inhibition Assay; settings: pH 6.25; 37 °C
T1 construct: 489-587
Description: (§1) Enzymatic activity was measured by following cleavage of the substrate H-Lys-Ala-Arg-Val-Leu-pNph-Glu-Ala-Nle-NH2. Products of the cleavage reaction were quantified by HPLC detection.

[2] = molecular target: T2, Dimer of Gag-Pol polyprotein [514-612] (Human immunodeficiency virus 2, UniProt P04584); assay: Protease Inhibition Assay; settings: pH 4.7; 37 °C
T2 construct: 514-612
T2 sequence (P04584 whole entry): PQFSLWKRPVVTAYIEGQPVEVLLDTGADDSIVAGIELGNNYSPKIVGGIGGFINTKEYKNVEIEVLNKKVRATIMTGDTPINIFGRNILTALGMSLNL
Description: as §1

SMILES	Ki [1] [µM]	Ki [2] [µM]
CC(C)C1NC(=O)[C@@H](C(O)[C@H](Cc2ccccc2)NC(=O)[C@@H](NC(=O)CSc2nncn2C)C(C)(C)C)NCc2ccc(cc2)OCCOCCNC1=O (stereo partly drawn) [(2S)-N-[(1S,2S)-1-[(10R,13R)-9,12-dioxo-10-(propan-2-yl)-2,5-dioxa-8,11,14-triazabicyclo[14.2.2]icosa-1(18),16,19-trien-13-yl]-1-hydroxy-3-phenylpropan-2-yl]-3,3-dimethyl-2-{2-[(4-methyl-4H-1,2,4-triazol-3-yl)sulfanyl]acetamido}butanamide]	0.0111	
CC(C)C1NC(=O)[C@@H](C(O)[C@H](Cc2ccccc2)NC(=O)OC2CCOC2)NCc2ccc(cc2)OCCOCCNC1=O (stereo partly drawn) [(3R)-oxolan-3-yl N-[(1S,2S)-1-[(10R,13R)-9,12-dioxo-10-(propan-2-yl)-2,5-dioxa-8,11,14-triazabicyclo[14.2.2]icosa-1(18),16,19-trien-13-yl]-1-hydroxy-3-phenylpropan-2-yl]carbamate]	0.0082	
CC(C)C1NC(=O)[C@@H](C(O)[C@H](Cc2ccccc2)NC(=O)[C@@H](NC(=O)OCc2ccccc2)C(C)C)NCc2ccc(cc2)OCCCCNC1=O (stereo partly drawn) [benzyl N-[(1S)-1-{[(1S,2S)-1-[(9R,12R)-8,11-dioxo-9-(propan-2-yl)-2-oxa-7,10,13-triazabicyclo[13.2.2]nonadeca-1(17),15,18-trien-12-yl]-1-hydroxy-3-phenylpropan-2-yl]carbamoyl}-2-methylpropyl]carbamate]	0.0066	
CC(C)C1NC(=O)[C@@H](C(O)[C@H](Cc2ccccc2)NC(=O)[C@@H](NC(=O)OCc2ccccc2)C(C)(C)C)NCc2ccc(cc2)OCCOCCNC1=O (stereo partly drawn) [benzyl N-[(1S)-1-{[(1S,2S)-1-[(10R,13R)-9,12-dioxo-10-(propan-2-yl)-2,5-dioxa-8,11,14-triazabicyclo[14.2.2]icosa-1(18),16,19-trien-13-yl]-1-hydroxy-3-phenylpropan-2-yl]carbamoyl}-2,2-dimethylpropyl]carbamate]	0.008	0.016
CC(C)C1NC(=O)[C@@H](C(O)[C@H](Cc2ccccc2)NC(=O)[C@@H](NC(=O)OCc2ccccc2)C(C)C)NCc2ccc(cc2)OCCOCCNC1=O (stereo partly drawn) [benzyl N-[(1S)-1-{[(1S,2S)-1-[(10R,13R)-9,12-dioxo-10-(propan-2-yl)-2,5-dioxa-8,11,14-triazabicyclo[14.2.2]icosa-1(18),16,19-trien-13-yl]-1-hydroxy-3-phenylpropan-2-yl]carbamoyl}-2-methylpropyl]carbamate]	0.0079	0.019
CC(C)C1NC(=O)[C@@H](C(O)[C@H](Cc2ccccc2)NC(=O)[C@@H](NC(=O)OCc2ccccc2)C(C)C)NCc2ccc(cc2)OCCOCCOCCNC1=O (stereo partly drawn) [benzyl N-[(1S)-1-{[(1S,2S)-1-[(13R,16R)-12,15-dioxo-13-(propan-2-yl)-2,5,8-trioxa-11,14,17-triazabicyclo[17.2.2]tricosa-1(21),19,22-trien-16-yl]-1-hydroxy-3-phenylpropan-2-yl]carbamoyl}-2-methylpropyl]carbamate]	0.0069	0.027
CC(C)C1NC(=O)[C@@H](C(O)[C@H](Cc2ccccc2)NC(=O)[C@@H](NC(=O)OCc2ccccc2)C(C)C)NCc2cccc(c2)OCCOCCOCCNC1=O (stereo partly drawn) [benzyl N-[(1S)-1-{[(1S,2S)-1-[(13R,16R)-12,15-dioxo-13-(propan-2-yl)-2,5,8-trioxa-11,14,17-triazabicyclo[17.3.1]tricosa-1(22),19(23),20-trien-16-yl]-1-hydroxy-3-phenylpropan-2-yl]carbamoyl}-2-methylpropyl]carbamate]	0.0077	
COc1ccc(CN[C@@H](C(=O)N[C@H]2c3ccccc3CC2O)C(O)[C@H](Cc2ccccc2)NC(=O)[C@@H](NC(=O)OCc2ccccc2)C(C)(C)C)cc1 (stereo partly drawn) [benzyl N-[(1S)-1-{[(2S,3S,4R)-3-hydroxy-4-{[(1S,2S)-2-hydroxy-2,3-dihydro-1H-inden-1-yl]carbamoyl}-4-{[(4-methoxyphenyl)methyl]amino}-1-phenylbutan-2-yl]carbamoyl}-2,2-dimethylpropyl]carbamate]	0.0095	0.05
COc1ccc(CN[C@@H](C(=O)NC(C(=O)NCc2nc3ccccc3[nH]2)C(C)C)C(O)[C@H](Cc2ccccc2)NC(=O)[C@@H](NC(=O)OCc2ccccc2)C(C)C)cc1 (stereo partly drawn) [benzyl N-[(1S)-1-{[(2S,3S,4R)-4-{[(1R)-1-[(1H-1,3-benzodiazol-2-ylmethyl)carbamoyl]-2-methylpropyl]carbamoyl}-3-hydroxy-4-{[(4-methoxyphenyl)methyl]amino}-1-phenylbutan-2-yl]carbamoyl}-2-methylpropyl]carbamate]	0.0034	
CC(C)C1NC(=O)[C@@H](C(O)[C@H](Cc2ccccc2)NC(=O)OC(C)(C)C)NCc2ccc(cc2)OCCCCNC1=O (stereo partly drawn) [tert-butyl N-[(1S,2S)-1-[(9R,12R)-8,11-dioxo-9-(propan-2-yl)-2-oxa-7,10,13-triazabicyclo[13.2.2]nonadeca-1(17),15,18-trien-12-yl]-1-hydroxy-3-phenylpropan-2-yl]carbamate]	0.017	
CC(C)C1NC(=O)[C@@H](C(O)[C@H](Cc2ccccc2)NC(=O)OC(C)(C)C)NCc2ccc(cc2)OCCOCCNC1=O (stereo partly drawn) [tert-butyl N-[(1S,2S)-1-[(10R,13R)-9,12-dioxo-10-(propan-2-yl)-2,5-dioxa-8,11,14-triazabicyclo[14.2.2]icosa-1(18),16,19-trien-13-yl]-1-hydroxy-3-phenylpropan-2-yl]carbamate]	0.014	
CC(C)C1NC(=O)[C@@H](C(O)[C@H](Cc2ccccc2)NC(=O)OC(C)(C)C)NCc2cccc(c2)OCCOCCOCCNC1=O (stereo partly drawn) [tert-butyl N-[(1S,2S)-1-[(13R,16R)-12,15-dioxo-13-(propan-2-yl)-2,5,8-trioxa-11,14,17-triazabicyclo[17.3.1]tricosa-1(22),19(23),20-trien-16-yl]-1-hydroxy-3-phenylpropan-2-yl]carbamate]	0.208	
CC(C)C1NC(=O)[C@@H](C(O)[C@H](Cc2ccccc2)NC(=O)OC(C)(C)C)NCc2ccc(cc2)OCCOCCOCCOCCNC1=O (stereo partly drawn) [tert-butyl N-[(1S,2S)-1-[(16R,19R)-15,18-dioxo-16-(propan-2-yl)-2,5,8,11-tetraoxa-14,17,20-triazabicyclo[20.2.2]hexacosa-1(24),22,25-trien-19-yl]-1-hydroxy-3-phenylpropan-2-yl]carbamate]	0.0232	
